Results from patent publication US9567586B2, “EpCAM aptamer for detection of cancer stem cells” (DEAKIN UNIVERSITY, priority 2012, dated 2017).

Tests used:
HT29 colon cancer cells = assay: Tumoursphere formation in 96-well, HT29; type: cell-based, human; conditions: HT29, 3 μM Dox equivalent, 5 days
Method: Under non-adherent and serum-free conditions, only the cancer stem cells (CSCs) and progenitor cells survive and undergo self-renewal as well as proliferate to form tumour spheres. The inventor studied the ability of aptamer-Dox to target cancer stem cells by plating various cell doses of single-cell suspension of HT29 colon cancer cells in ultra-low attachment 96-wells in the presence of 3 μM of free Dox, 3 μM equivalent Dox conjugated with aptamer, 3 μM Dox-negative control aptamer or vehicle control for 5 days. Tumour spheres (with a size >50 μm) were enumerated.

[1] = test system: PLC/PRF/5 hepatocellular carcinoma cell line; assay: Tumoursphere formation in 96-well, PLC/PRF/5; type: cell-based, human

`CC[C@@H](C(=O)[C@@H](C)[C@@H](O)[C@H](C)[C@@H]1O[C@@H]([C@@H](CC)C(=O)O)CC[C@@H]1C)[C@H]1O[C@]2(C=C[C@@H](O)[C@]3(CC[C@@](C)([C@H]4CC[C@](O)(CC)[C@H](C)O4)O3)O2)[C@H](C)C[C@@H]1C` [Saline, Salinomycin] was tested, and the “Number of wells with sphere” value (HT29 colon cancer cells; 1 cell seeded/well) was 0/10, the “Number of wells with sphere” value (HT29 colon cancer cells; 10 cells seeded/well) was 0/10 and the “Number of wells with sphere” value (HT29 colon cancer cells; 100 cells seeded/well) was 0/10. The “Number of wells with sphere” value (HT29 colon cancer cells; 200 cells seeded/well) was 2/10, the “Number of wells with sphere” value ([1]; 1 cell seeded/well) was 0/10 and the “Number of wells with sphere” value ([1]; 10 cells seeded/well) was 0/10. The “Number of wells with sphere” value ([1]; 100 cells seeded/well) was 0/10 and the “Number of wells with sphere” value ([1]; 200 cells seeded/well) was 0/10.
